Legend:
[1] = molecular target: T1, Amine oxidase [flavin-containing] A (Homo sapiens, UniProt P21397); assay type: functional
T1 sequence (P21397 whole entry): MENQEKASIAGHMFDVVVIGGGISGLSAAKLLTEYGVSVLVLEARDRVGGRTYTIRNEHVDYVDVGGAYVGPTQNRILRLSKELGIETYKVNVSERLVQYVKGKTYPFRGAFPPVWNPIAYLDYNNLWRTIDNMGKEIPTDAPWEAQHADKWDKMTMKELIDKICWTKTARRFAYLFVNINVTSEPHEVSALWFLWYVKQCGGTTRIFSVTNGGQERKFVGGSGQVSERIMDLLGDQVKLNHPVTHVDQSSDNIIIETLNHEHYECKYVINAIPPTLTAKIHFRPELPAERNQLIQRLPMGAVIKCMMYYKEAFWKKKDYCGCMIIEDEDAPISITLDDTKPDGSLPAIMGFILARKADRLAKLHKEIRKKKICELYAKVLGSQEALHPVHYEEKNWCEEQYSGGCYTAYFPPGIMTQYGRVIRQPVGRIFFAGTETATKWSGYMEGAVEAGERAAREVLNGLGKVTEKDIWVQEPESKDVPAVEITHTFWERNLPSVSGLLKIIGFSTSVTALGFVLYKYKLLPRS

Histamine H3 receptor = Histamine H3 receptor (Homo sapiens, UniProt Q9Y5N1)
Histamine H3 receptor, sequence (Q9Y5N1 whole entry): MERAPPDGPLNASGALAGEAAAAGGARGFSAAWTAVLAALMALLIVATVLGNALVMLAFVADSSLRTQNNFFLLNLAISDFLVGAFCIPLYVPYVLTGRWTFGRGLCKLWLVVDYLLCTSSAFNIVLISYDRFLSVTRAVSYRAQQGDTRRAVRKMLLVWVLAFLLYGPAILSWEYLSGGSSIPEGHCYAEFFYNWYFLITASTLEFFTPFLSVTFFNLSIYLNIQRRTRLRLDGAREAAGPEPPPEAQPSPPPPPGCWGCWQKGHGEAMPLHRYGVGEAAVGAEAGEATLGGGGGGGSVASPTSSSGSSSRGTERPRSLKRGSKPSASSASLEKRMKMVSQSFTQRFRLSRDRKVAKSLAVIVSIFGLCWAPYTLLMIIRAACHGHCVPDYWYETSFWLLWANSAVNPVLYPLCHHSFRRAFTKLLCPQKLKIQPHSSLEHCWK

[2] = molecular target: T2, Muscarinic acetylcholine receptor M1 (Homo sapiens, UniProt P11229); assay type: functional, cell-based
T2 sequence (P11229 whole entry): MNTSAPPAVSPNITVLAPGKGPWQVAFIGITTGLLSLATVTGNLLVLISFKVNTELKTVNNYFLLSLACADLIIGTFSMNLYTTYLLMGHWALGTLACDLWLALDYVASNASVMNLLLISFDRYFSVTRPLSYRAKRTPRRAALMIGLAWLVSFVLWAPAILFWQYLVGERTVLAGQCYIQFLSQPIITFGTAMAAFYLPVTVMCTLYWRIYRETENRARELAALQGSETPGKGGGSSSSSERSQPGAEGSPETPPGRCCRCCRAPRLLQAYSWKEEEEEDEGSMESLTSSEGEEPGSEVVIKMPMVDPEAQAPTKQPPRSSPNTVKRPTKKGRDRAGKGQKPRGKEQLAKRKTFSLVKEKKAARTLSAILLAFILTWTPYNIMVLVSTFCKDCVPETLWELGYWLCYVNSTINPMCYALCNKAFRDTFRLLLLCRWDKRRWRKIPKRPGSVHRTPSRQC

[3] = molecular target: Kappa-type opioid receptor (Homo sapiens, UniProt P41145)
Kappa-type opioid receptor, sequence (P41145 whole entry): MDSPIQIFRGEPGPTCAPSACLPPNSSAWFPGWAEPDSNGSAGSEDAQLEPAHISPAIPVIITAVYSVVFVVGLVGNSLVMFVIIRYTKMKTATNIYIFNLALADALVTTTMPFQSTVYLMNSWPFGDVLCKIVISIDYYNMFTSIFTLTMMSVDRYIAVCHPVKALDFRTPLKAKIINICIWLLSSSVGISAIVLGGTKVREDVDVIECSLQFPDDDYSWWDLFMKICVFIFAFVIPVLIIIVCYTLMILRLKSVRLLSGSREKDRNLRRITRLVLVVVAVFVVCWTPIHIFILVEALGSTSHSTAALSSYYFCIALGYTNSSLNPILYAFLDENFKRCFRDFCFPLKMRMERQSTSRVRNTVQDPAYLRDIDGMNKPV

[4] = molecular target: T3, 5-hydroxytryptamine receptor 1A (Homo sapiens, UniProt P08908); assay type: functional, cell-based
T3 sequence (P08908 whole entry): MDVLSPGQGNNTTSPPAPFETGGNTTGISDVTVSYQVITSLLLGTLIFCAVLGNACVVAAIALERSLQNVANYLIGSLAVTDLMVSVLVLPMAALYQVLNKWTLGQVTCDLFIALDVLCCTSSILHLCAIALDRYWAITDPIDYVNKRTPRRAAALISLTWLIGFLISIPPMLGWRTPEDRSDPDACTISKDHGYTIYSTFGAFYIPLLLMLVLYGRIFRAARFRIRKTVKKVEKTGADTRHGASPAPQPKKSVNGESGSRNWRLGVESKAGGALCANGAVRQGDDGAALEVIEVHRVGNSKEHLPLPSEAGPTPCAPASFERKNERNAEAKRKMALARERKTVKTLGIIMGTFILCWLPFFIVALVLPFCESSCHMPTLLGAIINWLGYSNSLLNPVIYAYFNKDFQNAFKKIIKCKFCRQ
Further: assay procedure not described here.

Row | Compound | AC50 [1] | AC50 (Histamine H3 receptor) | AC50 [2] | AC50 [3] | AC50 [4]
1 | C[C@@H](CN1CC(=O)NC(=O)C1)N1CC(=O)NC(=O)C1 [DEXRAZOXANE] | > 30 µM | > 30 µM | > 30 µM |  | 
2 | C[C@]12CC[C@@H]3c4ccc(OC(=O)N(CCCl)CCCl)cc4CC[C@H]3[C@@H]1CC[C@@H]2OP(=O)(O)O [ESTRAMUSTINE PHOSPHATE] | > 30 µM | > 30 µM | > 30 µM |  | 
3 | O=c1[nH]c2ccccc2n1CCN1CCN(c2cccc(C(F)(F)F)c2)CC1 [FLIBANSERIN] | > 30 µM | > 30 µM | 10.1 µM |  | 
4 | O=C(O)[C@H](O)[C@@H](O)[C@H](O)[C@H](O)CO [GLUCONIC ACID] | > 30 µM | > 30 µM | > 30 µM |  | 
5 | N=C(N)NCC1COc2ccccc2O1 (centres undefined) [GUANOXAN] | > 30 µM | > 30 µM | > 30 µM |  | 
6 | N#Cc1ccnc(N2C(=O)CC[C@H]2C(=O)N(c2cncc(F)c2)[C@H](C(=O)NC2CC(F)(F)C2)c2ccccc2Cl)c1 [IVOSIDENIB] | > 30 µM | > 30 µM | > 30 µM |  | 
7 | CCCCCCO[C@@H](C)c1cccc(-c2csc(NC(=O)c3cc(Cl)c(/C=C(\C)C(=O)O)c(Cl)c3)n2)c1OC [LUSUTROMBOPAG] | > 30 µM | 15.1 µM | > 30 µM |  | 
8 | Cc1cc(C)cc(OCC2CNC(=O)O2)c1 (centres undefined) [METAXALONE] | 15.4 µM | > 30 µM | > 30 µM |  | 
9 | CO[C@@]1(NC(=O)C(C(=O)O)c2ccc(O)cc2)C(=O)N2C(C(=O)O)=C(CSc3nnnn3C)CO[C@@H]21 (some centres undefined) [MOXALACTAM] | > 30 µM | > 30 µM | > 30 µM |  | 
10 | CCCCCCCC/C=C\CCCCCCCC(=O)O [OLEIC ACID] | > 30 µM | > 30 µM | > 30 µM |  | 
11 | CC1=C(C/C=C(\C)CCC[C@H](C)CCC[C@H](C)CCCC(C)C)C(=O)c2ccccc2C1=O [PHYTONADIONE] | > 30 µM | > 30 µM | > 30 µM |  | 
12 | NC(=O)C1(N2CCCCC2)CCN(CCCC(=O)c2ccc(F)cc2)CC1 [PIPAMPERONE] | > 30 µM | 21.7 µM | > 30 µM |  | 
13 | COc1cccc2c1C(=O)c1c(O)c3c(c(O)c1C2=O)C[C@@](O)(C(=O)CO)C[C@@H]3O[C@H]1C[C@H](N)[C@H](O[C@@H]2CCCCO2)[C@H](C)O1 [PIRARUBICIN] | > 30 µM | > 30 µM | > 1 µM |  | 
14 | CC(C)(Oc1ccc(Cl)cc1)C(=O)NC(=O)NCN1CCOCC1 [PLAFIBRIDE] | > 30 µM | > 30 µM | > 30 µM |  | 
15 | CC(C)NC[C@H](O)COc1ccc(O)cc1 [PRENALTEROL] | > 30 µM | > 30 µM | > 30 µM |  | 
16 | CN1CCC(N(Cc2cccs2)c2ccccc2)CC1 [THENALIDINE] | > 30 µM | > 30 µM | > 30 µM |  | 
17 | Cc1ccc(C(C)C)c(O)c1 [THYMOL] | > 30 µM | > 30 µM | > 30 µM |  | 
18 | CN(C)CCN(Cc1ccccc1)c1ccccn1 [TRIPELENNAMINE] | > 30 µM | > 30 µM | > 30 µM | 6.25 µM | > 10 µM
19 | Cc1cccc(C)c1NC(=O)c1cc(S(N)(=O)=O)c(Cl)cc1O [XIPAMIDE] | > 30 µM | > 30 µM | > 30 µM |  | 

Source: ChEMBL document CHEMBL5291721, “A preclinical secondary pharmacology resource illuminates target-adverse drug reaction associations of marketed drugs” (Nat Commun, 2023)
